Source: ChEMBL document CHEMBL5154648, “Antitumor activity of novel POLA1-HDAC11 dual inhibitors” (Eur J Med Chem, 2022)
The source made the active and inactive calls. No cut-off for these calls is given here.

Columns and labels:
H460-R9A = experiment: Antiproliferative activity against human H460-R9A cells at 0.75 to 12 uM in combination with SIS17 after 72 hrs by MTT assay; assay type: functional, cell-based; settings: dose 0.75-12 µM
MDA-MB-231 = experiment: Antiproliferative activity against human MDA-MB-231 cells incubated for 24 hrs followed by incubating in drug-free medium for 48 hrs and measured by SRB assay; assay type: functional, cell-based
A2780 = experiment: Induction of cell cycle arrest in human A2780 cells assessed as accumulation of cells at S phase at 0.6 uM after 72 hrs by flow cytometry (reference value: 36.3%); assay type: functional
[1] = molecular target: T1, DNA polymerase alpha catalytic subunit (Homo sapiens) (UniProt P09884); experiment: Inhibition of recombinant POLA1 (unknown origin) using 5-Fluorescein-rGrGrArArArGrGrArCrGrArArArCrA-3 as substrate at 10 to 50 uM and measured by primer extension assay; settings: dose 10-50 µM
T1 sequence (whole entry): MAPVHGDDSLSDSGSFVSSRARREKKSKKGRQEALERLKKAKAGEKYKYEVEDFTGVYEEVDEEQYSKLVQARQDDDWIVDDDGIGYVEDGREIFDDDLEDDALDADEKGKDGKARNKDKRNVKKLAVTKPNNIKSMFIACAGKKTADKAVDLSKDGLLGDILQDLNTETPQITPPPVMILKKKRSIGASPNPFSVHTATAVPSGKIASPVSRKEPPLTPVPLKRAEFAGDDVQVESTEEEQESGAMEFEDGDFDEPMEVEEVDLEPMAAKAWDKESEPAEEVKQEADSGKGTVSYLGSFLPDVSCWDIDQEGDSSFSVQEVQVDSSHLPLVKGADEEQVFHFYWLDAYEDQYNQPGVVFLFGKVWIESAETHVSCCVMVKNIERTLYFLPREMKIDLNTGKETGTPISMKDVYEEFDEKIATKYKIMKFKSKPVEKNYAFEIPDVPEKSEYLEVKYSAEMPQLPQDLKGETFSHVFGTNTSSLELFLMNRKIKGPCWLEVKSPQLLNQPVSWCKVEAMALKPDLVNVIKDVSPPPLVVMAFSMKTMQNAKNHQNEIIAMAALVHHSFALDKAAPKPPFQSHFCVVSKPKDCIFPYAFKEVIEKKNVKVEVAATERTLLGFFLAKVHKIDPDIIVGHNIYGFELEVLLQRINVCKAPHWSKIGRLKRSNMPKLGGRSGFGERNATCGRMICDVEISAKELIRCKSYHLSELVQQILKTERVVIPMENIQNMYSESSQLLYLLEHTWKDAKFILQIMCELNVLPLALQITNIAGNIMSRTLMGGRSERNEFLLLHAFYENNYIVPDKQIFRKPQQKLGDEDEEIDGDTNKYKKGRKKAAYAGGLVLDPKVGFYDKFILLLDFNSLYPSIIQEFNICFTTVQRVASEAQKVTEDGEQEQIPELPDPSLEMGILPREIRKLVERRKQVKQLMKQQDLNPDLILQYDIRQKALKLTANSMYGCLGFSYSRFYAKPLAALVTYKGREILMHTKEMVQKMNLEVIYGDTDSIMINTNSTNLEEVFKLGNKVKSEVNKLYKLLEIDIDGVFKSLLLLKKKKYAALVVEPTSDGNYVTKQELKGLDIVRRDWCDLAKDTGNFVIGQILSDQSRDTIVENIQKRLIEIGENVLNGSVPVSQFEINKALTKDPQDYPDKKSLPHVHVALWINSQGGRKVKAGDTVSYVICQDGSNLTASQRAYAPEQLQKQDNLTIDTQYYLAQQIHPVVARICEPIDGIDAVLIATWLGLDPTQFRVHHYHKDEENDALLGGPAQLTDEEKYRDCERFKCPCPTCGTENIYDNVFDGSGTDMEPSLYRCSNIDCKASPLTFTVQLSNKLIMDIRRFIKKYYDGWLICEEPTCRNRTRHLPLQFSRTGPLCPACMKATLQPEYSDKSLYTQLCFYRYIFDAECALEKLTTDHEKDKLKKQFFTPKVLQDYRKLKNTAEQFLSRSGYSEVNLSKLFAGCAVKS

MM473 [2] = experiment: Induction of cell cycle arrest in human MM473-Luc cells assessed as accumulation of cells at G0/1 phase at 1.2 uM after 72 hrs by flow cytometry (reference value: 74.7%); assay type: functional
NCI-H460 [3] = experiment: Induction of DNA damage in human NCI-H460 cells at 0.1 to 0.4 uM assessed as increase in p-H2AX levels and measured by Western blot analysis; assay type: functional, cell-based; settings: dose 0.1-0.4 µM
[4] = molecular target: T2, Histone deacetylase 11 (Homo sapiens) (UniProt Q96DB2); experiment: Inhibition of HDAC11 in human NCI-H460 cells at 0.1 to 0.4 uM assessed as induction of p53 acetylation and measured by Western blot analysis; assay type: cell-based; settings: dose 0.1-0.4 µM
T2 sequence (whole entry): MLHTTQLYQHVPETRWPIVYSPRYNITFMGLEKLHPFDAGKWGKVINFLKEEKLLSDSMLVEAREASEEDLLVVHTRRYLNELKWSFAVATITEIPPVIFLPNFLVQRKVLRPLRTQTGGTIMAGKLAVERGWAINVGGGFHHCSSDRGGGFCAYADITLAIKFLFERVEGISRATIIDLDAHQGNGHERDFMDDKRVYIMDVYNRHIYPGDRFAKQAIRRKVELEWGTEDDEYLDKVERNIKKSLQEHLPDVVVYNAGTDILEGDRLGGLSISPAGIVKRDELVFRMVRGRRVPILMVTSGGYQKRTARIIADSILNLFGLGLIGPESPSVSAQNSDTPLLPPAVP

NCI-H460 [5] = experiment: Antiproliferative activity against human NCI-H460 cells at 0.1 to 0.4 uM assessed as reduction in PIN1 level and measured by Western blot analysis; assay type: functional, cell-based; settings: dose 0.1-0.4 µM
MM473 [6] = experiment: Induction of cell cycle arrest in human MM473-Luc cells assessed as accumulation of cells at sub-G1 phase at 1.2 uM after 72 hrs by flow cytometry (reference value: 1.3%); assay type: functional
[7] = Toxicity in mouse xenografted with human H460-R9A cells assessed as body weight loss at 50 mg/kg, po qd administered 5 times a week for 3 to 4 weeks in combination with cisplatin at 4 mg/kg, iv administered every 7 days for 4 weeks; assay type: organism-based; settings: in vivo, time 3-4 weeks
NCI-H460 [8] = experiment: Induction of cell cycle arrest in human NCI-H460 cells assessed as accumulation of cells at S phase at 0.25 uM after 72 hrs by flow cytometry (reference value: 32.1%); assay type: functional
[9] = molecular target: T2, Histone deacetylase 11 (Homo sapiens); experiment: Inhibition of HDAC11 in human MM487 cells at 0.1 to 0.4 uM assessed as induction of p53 acetylation and measured by Western blot analysis; assay type: cell-based; settings: dose 0.1-0.4 µM
NCI-H460 [10] = experiment: Antiproliferative activity against human NCI-H460 cells at 0.1 to 0.4 uM assessed as reduction in p-ERK1/2 level and measured by Western blot analysis; assay type: functional, cell-based; settings: dose 0.1-0.4 µM
NCI-H460 [11] = experiment: Induction of cell cycle arrest in human NCI-H460 cells assessed as accumulation of cells at G2/M phase at 0.26 uM after 72 hrs by flow cytometry (reference value: 21.1%); assay type: functional

| IC50 (MDA-MB-231) [nM] | inhibition [1] | inhibition [4] | inhibition [9] | Compound | Activity (H460-R9A) | Activity (A2780) [%] | Activity (MM473 [2]) [%] | Activity (NCI-H460 [3]) | Activity (NCI-H460 [5]) | Activity (MM473 [6]) [%] | Activity [7] [%] | Activity (NCI-H460 [8]) [%] | Activity (NCI-H460 [10]) | Activity (NCI-H460 [11]) [%] |
| --- | --- | --- | --- | --- | --- | --- | --- | --- | --- | --- | --- | --- | --- | --- |
| 1100 | – | – | – | O=C(O)C=Cc1ccc(-c2ccc(O)c(C34CC5CC(CC(C5)C3)C4)c2)cc1 | Active | – | – | – | – | – | – | – | – | – |
| 1900 | Active | Active | Active | O=C(O)C=Cc1ccc(-c2ccc(OCC(=O)NO)c(C34CC5CC(CC(C5)C3)C4)c2)cc1 | – | 78.9 | 23 | Active | Active | 39.7 | 0 | 80.9 | Active | – |
| – | Active | Active | – | CC(Oc1ccc(-c2ccc(C=CC(=O)O)cc2)cc1C12CC3CC(CC(C3)C1)C2)C(=O)NO (stereo not given) | – | – | – | Active | Active | – | – | – | Active | 7.8 |
